Assay results taken from patent US10519177B2, “Heterocyclic compounds and uses thereof” (Plexxikon Inc., priority 2013, dated 2019).

The molecules below were run against BRD4-BD1 (44-164) (Homo sapiens (Human), UniProt O60885) (assay: Alphascreen binding assay BRD4-BD1). Conditions: BRD4(1) H4; read-out: Biochemical activity (IC50 μM) BRD4(1) H4.
Summary of the method: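 AlphaScreen signal (nickel acceptor, streptavidin donor beads, 7.5 µg/ml each, read 30 min after addition) reports displacement of biotin-H4 K5/K8/K12/K16-acetyl peptide from His-BRD4 BD1 (44-164) or tandem BD12 (1-477).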

| SMILES | IC50 |
| --- | --- |
| Cc1noc(C)c1-c1cnc2c(-c3cnn(C)c3)cn(C(C(=O)O)c3ccccc3)c2c1 (stereo not shown) [P-0206, 2-[6-(3,5-dimethylisoxazol-4-yl)-3-(1-methylpyrazol-4-yl)pyrrolo[3,2-b]pyridin-1-yl]-2-phenyl-acetic acid] | < 1 µM |
| COC(c1c[nH]c2ncc(-c3c(C)noc3C)cc12)C1CCC(F)(F)CC1 (stereo not shown) [P-0073, 4-[3-[(4,4-difluorocyclohexyl)-methoxy-methyl]-1H-pyrrolo[2,3-b]pyridin-5-yl]-3,5-dimethyl-isoxazole] | < 1 µM |
| Cc1noc(C)c1-c1cnc2[nH]c(-c3ccc(F)cc3)c(Cc3cccnc3)c2c1 [P-0007, 4-[2-(4-fluorophenyl)-3-(3-pyridylmethyl)-1H-pyrrolo[2,3-b]pyridin-5-yl]-3,5-dimethyl-isoxazole] | < 1 µM |
| Cc1noc(C)c1-c1cnc2[nH]cc(C3(O)CCC(F)(F)CC3)c2c1 [P-0024, 1-[5-(3,5-dimethylisoxazol-4-yl)-1H-pyrrolo[2,3-b]pyridin-3-yl]-4,4-difluoro-cyclohexanol] | < 1 µM |
| Cc1noc(C)c1-c1cnc2c(c1)c(C(O)C1CCSCC1)cn2S(=O)(=O)c1ccccc1 (stereo not shown) [P-0090, [1-(benzenesulfonyl)-5-(3,5-dimethylisoxazol-4-yl)pyrrolo[2,3-b]pyridin-3-yl]-tetrahydrothiopyran-4-yl-methanol] | < 1 µM |
| Cc1noc(C)c1-c1cnc2ccn(S(=O)(=O)N3CCCCC3)c2c1 [P-0067, 3,5-dimethyl-4-[1-(1-piperidylsulfonyl)pyrrolo[3,2-b]pyridin-6-yl]isoxazole] | < 1 µM |
| Cc1noc(C)c1-c1cnc2[nH]cc(C(O)c3cccc(OC(F)(F)F)c3)c2c1 (stereo not shown) [P-0039, [5-(3,5-dimethylisoxazol-4-yl)-1H-pyrrolo[2,3-b]pyridin-3-yl]-[3-(trifluoromethoxy)phenyl]methanol] | < 1 µM |
| Cc1noc(C)c1-c1cnc2c(-c3cnn(CC(F)(F)F)c3)cn(S(=O)(=O)C3CCCC3)c2c1 [P-0149, 4-[1-cyclopentyl-sulfonyl-3-[1-(2,2,2-trifluoroethyl)pyrazol-4-yl]pyrrolo[3,2-b]pyridin-6-yl]-3,5-dimethyl-isoxazole] | < 1 µM |
| Cc1noc(C)c1-c1cnc2c(-c3cnn(C)c3)cn(C(C)c3ccccc3)c2c1 (stereo not shown) [P-0161, 3,5-dimethyl-4-[3-(1-methylpyrazol-4-yl)-1-(1-phenylethyl)pyrrolo[3,2-b]pyridin-6-yl]isoxazole] | < 1 µM |
| Cc1noc(C)c1-c1cnc2c(-c3cnn(C)c3)cn([C@@H](C)c3ccccc3)c2c1 [P-0222, 3,5-dimethyl-4-[3-(1-methylpyrazol-4-yl)-1-[(1S)-1-phenylethyl]pyrrolo[3,2-b]pyridin-6-yl]isoxazole] | < 1 µM |
| Cc1noc(C)c1-c1cnc2[nH]c(C)c(C(O)c3cccnc3)c2c1 (stereo not shown) [P-0009, [5-(3,5-dimethylisoxazol-4-yl)-2-methyl-1H-pyrrolo[2,3-b]pyridin-3-yl]-(3-pyridyl)methanol] | < 1 µM |
| Cc1noc(C)c1-c1cnc2c(-c3cnn(C)c3)cn(Cc3cc(F)ccc3Cl)c2c1 [P-0190, 4-[1-[(2-chloro-5-fluoro-phenyl)methyl]-3-(1-methylpyrazol-4-yl)pyrrolo[3,2-b]pyridin-6-yl]-3,5-dimethyl-isoxazole] | < 1 µM |
| CCS(=O)(=O)n1cc(C(OC)C2CCC(F)(F)CC2)c2cc(-c3c(C)noc3C)cnc21 (stereo not shown) [P-0078, 4-[3-[(4,4-difluoro-cyclohexyl)-methoxy-methyl]-1-ethylsulfonyl-pyrrolo[2,3-b]pyridin-5-yl]-3,5-dimethyl-isoxazole] | < 1 µM |
| C=CCn1cc(-c2cn(S(=O)(=O)C3CCCC3)c3cc(-c4c(C)noc4C)cnc23)cn1 [P-0128, 4-[3-(1-allylpyrazol-4-yl)-1-cyclopentyl-sulfonyl-pyrrolo[3,2-b]pyridin-6-yl]-3,5-dimethyl-isoxazole] | < 1 µM |
| Cc1noc(C)c1-c1cnc2c(-c3cnn(C(F)F)c3)cn(S(=O)(=O)c3ccccc3F)c2c1 [P-0132, 4-[3-[1-(difluoromethyl)pyrazol-4-yl]-1-(2-fluorophenyl)sulfonyl-pyrrolo[3,2-b]pyridin-6-yl]-3,5-dimethyl-isoxazole] | < 1 µM |
| Cc1noc(C)c1-c1cnc2[nH]cc(C(O)C3CCC(F)(F)CC3)c2c1 (stereo not shown) [P-0030, (4,4-difluorocyclohexyl)-[5-(3,5-dimethylisoxazol-4-yl)-1H-pyrrolo[2,3-b]pyridin-3-yl]methanol] | < 1 µM |
| Cc1noc(C)c1-c1cnc2[nH]cc(Cc3cccnc3)c2c1 [P-0003, 3,5-dimethyl-4-[3-(3-pyridylmethyl)-1H-pyrrolo[2,3-b]pyridin-5-yl]isoxazole] | < 1 µM |
| COc1ncc(C(O)c2c[nH]c3ncc(-c4c(C)noc4C)cc23)cc1F (stereo not shown) [P-0025, [5-(3,5-dimethylisoxazol-4-yl)-1H-pyrrolo[2,3-b]pyridin-3-yl]-(5-fluoro-6-methoxy-3-pyridyl)methanol] | < 1 µM |
| Cc1noc(C)c1-c1cnc2c(-c3cnn(C)c3)cn(Cc3cccnc3)c2c1 [P-0195, 3,5-dimethyl-4-[3-(1-methylpyrazol-4-yl)-1-(3-pyridylmethyl)pyrrolo[3,2-b]pyridin-6-yl]isoxazole] | < 1 µM |

| SMILES | IC50 |
| --- | --- |
| CCc1[nH]c2ncc(-c3c(C)noc3C)cc2c1CC1CCC(F)(F)CC1 [P-0051, 4-[3-[(4,4-difluoro-cyclohexyl)methyl]-2-ethyl-1H-pyrrolo[2,3-b]pyridin-5-yl]-3,5-dimethyl-isoxazole] | < 1 µM |
| Cc1noc(C)c1-c1cnc2c(-c3cnn(C)c3)cn(CC3(F)CCCCC3)c2c1 [P-0212, 4-[1-[(1-fluorocyclohexyl)methyl]-3-(1-methylpyrazol-4-yl)pyrrolo[3,2-b]pyridin-6-yl]-3,5-dimethyl-isoxazole] | < 1 µM |
| Cc1noc(C)c1-c1cnc2c(-c3cnn(C(F)F)c3)cn(CC3CCC(F)(F)CC3)c2c1 [P-0210, 4-[1-[(4,4-difluorocyclohexyl)methyl]-3-[1-(difluoromethyl)pyrazol-4-yl]pyrrolo[3,2-b]pyridin-6-yl]-3,5-dimethyl-isoxazole] | < 1 µM |
| Cc1noc(C)c1-c1cnc2c(I)cn(C(C)c3ccccc3)c2c1 (stereo not shown) [P-0224, 4-[3-iodo-1-(1-phenylethyl)pyrrolo[3,2-b]pyridin-6-yl]-3,5-dimethyl-isoxazole] | < 1 µM |
| Cc1noc(C)c1-c1cnc2c(C#CCF)cn(S(=O)(=O)C3CCCC3)c2c1 [P-0158, 4-[1-cyclopentylsulfonyl-3-(3-fluoroprop-1-ynyl)pyrrolo[3,2-b]pyridin-6-yl]-3,5-dimethyl-isoxazole] | < 1 µM |
| Cc1noc(C)c1-c1cnc2[nH]cc(Cc3ccccc3Cl)c2c1 [P-0026, 4-[3-[(2-chlorophenyl)methyl]-1H-pyrrolo[2,3-b]pyridin-5-yl]-3,5-dimethyl-isoxazole] | < 1 µM |
| Cc1noc(C)c1-c1cnc2ccn(S(=O)(=O)c3ccccc3F)c2c1 [P-0060, 4-[1-(2-fluorophenyl)sulfonylpyrrolo[3,2-b]pyridin-6-yl]-3,5-dimethyl-isoxazole] | < 1 µM |
| Cc1noc(C)c1-c1cnc2c(-c3cnn(C)c3)cn(Cc3ccccc3OC(F)(F)F)c2c1 [P-0194, 3,5-dimethyl-4-[3-(1-methylpyrazol-4-yl)-1-[[2-(trifluoromethoxy)phenyl]methyl]pyrrolo[3,2-b]pyridin-6-yl]isoxazole] | < 1 µM |
| Cc1noc(C)c1-c1cnc2c(c1)c(S(=O)(=O)c1ccccc1)cn2-c1cnn(C)c1 [P-0185, 4-[3-(benzenesulfonyl)-1-(1-methylpyrazol-4-yl)pyrrolo[2,3-b]pyridin-5-yl]-3,5-dimethyl-isoxazole] | < 1 µM |
| CCNC(=O)N1CCC(Cc2cn(C)c3ncc(-c4c(C)noc4C)cc23)CC1 [P-0117, 4-[[5-(3,5-dimethylisoxazol-4-yl)-1-methyl-pyrrolo[2,3-b]pyridin-3-yl]methyl]-N-ethyl-piperidine-1-carboxamide] | < 1 µM |
| Cc1noc(C)c1-c1cnc2ccn(S(=O)(=O)C3CCCCC3)c2c1 [P-0066, 4-(1-cyclohexylsulfonyl-pyrrolo[3,2-b]pyridin-6-yl)-3,5-dimethyl-isoxazole] | < 1 µM |
| Cc1noc(C)c1-c1cnc2[nH]cc(C(O)c3cccc4c3OC(F)(F)O4)c2c1 (stereo not shown) [P-0041, (2,2-difluoro-1,3-benzodioxol-4-yl)-[5-(3,5-dimethylisoxazol-4-yl)-1H-pyrrolo[2,3-b]pyridin-3-yl]methanol] | < 1 µM |
| CCc1[nH]c2ncc(-c3c(C)noc3C)cc2c1C(O)c1ccccc1Cl (stereo not shown) [P-0042, (2-chlorophenyl)-[5-(3,5-dimethylisoxazol-4-yl)-2-ethyl-1H-pyrrolo[2,3-b]pyridin-3-yl]methanol] | < 1 µM |
| Cc1noc(C)c1-c1cnc2c(-c3cnn(C4CC4)c3)cn(C(C)c3ccccc3)c2c1 (stereo not shown) [P-0216, 4-[3-(1-cyclopropylpyrazol-4-yl)-1-(1-phenylethyl)pyrrolo[3,2-b]pyridin-6-yl]-3,5-dimethyl-isoxazole] | < 1 µM |
| COC(c1ccc(C(F)(F)F)nc1)c1c[nH]c2ncc(-c3c(C)noc3C)cc12 (stereo not shown) [P-0013, 4-[3-[methoxy-[6-(trifluoromethyl)-3-pyridyl]methyl]-1H-pyrrolo[2,3-b]pyridin-5-yl]-3,5-dimethyl-isoxazole] | < 1 µM |
| Cc1noc(C)c1-c1cnc2c(-c3cnn(C)c3)cn(Cc3ccccc3F)c2c1 [P-0172, 4-[1-[(2-fluorophenyl)methyl]-3-(1-methylpyrazol-4-yl)pyrrolo[3,2-b]pyridin-6-yl]-3,5-dimethyl-isoxazole] | < 1 µM |
| Cc1noc(C)c1-c1cnc2[nH]c(C)c(Cc3cccnc3)c2c1 [P-0005, 3,5-dimethyl-4-[2-methyl-3-(3-pyridylmethyl)-1H-pyrrolo[2,3-b]pyridin-5-yl]isoxazole] | < 1 µM |
| Cc1noc(C)c1-c1cnc2[nH]cc(Cc3ccccc3OC(F)F)c2c1 [P-0047, 4-[3-[[2-(difluoro-methoxy)phenyl]methyl]-1H-pyrrolo[2,3-b]pyridin-5-yl]-3,5-dimethyl-isoxazole] | < 1 µM |
